What was measured:
[1] = system: Acinetobacter baumannii (A. baumannii) 2208 ATCC19606; assay: Bacterial growth inhibition test / MIC calculation; assay type: cell-based; conditions: MHB, 37° C., growth curves, linear regression, mean ± s.d.
From the text: (§1) The bacterial strains methicillin-sensitive Staphylococcus aureus (S. aureus) ATCC 29213, methicillin-resistant Staphylococcus aureus (MRSA) ATCC 43300, Enterococcus faecalis (E. faecalis) ATCC 29212, Escherichia coli (E. coli) ATCC 25922, Acinetobacter baumannii (A. baumannii) 2208 ATCC19606, Pseudomonas aeruginosa (P. aeruginosa) strain PAO1-LAC ATCC 47085, Klebsiella pneumoniae (K. pneumoniae) ATCC 13883 and multidrug-resistant K. pneumoniae (MDR), were obtained from the culture collection of the Oral Health Cooperative Research Centre, The Melbourne Dental School, University of Melbourne, Australia. Bacteria were cultured in Mueller Hinton Broth (MHB) at 37° C. 50 μL of suspensions with the desired concentrations of Se NPs, Se NP-ε-PL or pure ε-PL in PBS solution was added to each well of 96-well microplates, then 50 μL MHB with 2.5×10^6 bacteria/mL were added into each well. The plate was put into an iEMS microplate reader (Pathtech Pty Ltd, Melbourne, Australia) at a temperature of 37° C. to monitor bacterial growth by measuring the absorbance at wavelength of 630 nm for 24 h. Background absorbance values due to the Se NP solutions were subtracted from the measured absorbance values.
(§2) The absorbance values from bacteria growth curves at the time when the stationary phase starts (tsps) were taken and calculated as a percentage of the untreated control (Z=OD5/OD6×100%, where OD5 represents absorbance at tsps of experimental groups and OD6 represents the absorbance at tsps of the negative control group; all absorbance values had the culture medium background values subtracted). Concentration-inhibition curves were plotted with the percentages of absorbance, and linear regression analysis was adopted to determine the MIC at which Z becomes zero.

[2] = system: Enterococcus faecalis (E. faecalis) ATCC 29212; assay: Bacterial growth inhibition test / MIC calculation; assay type: cell-based; conditions: MHB, 37° C., growth curves, linear regression, mean ± s.d.
From the text: as §1, §2

[3] = system: Escherichia coli (E. coli) ATCC 25922; assay: Bacterial growth inhibition test / MIC calculation; assay type: cell-based; conditions: MHB, 37° C., growth curves, linear regression, mean ± s.d.
From the text: as §1, §2

[4] = system: Klebsiella pneumoniae (K. pneumoniae) ATCC 13883; assay: Bacterial growth inhibition test / MIC calculation; assay type: cell-based; conditions: MHB, 37° C., growth curves, linear regression, mean ± s.d.
From the text: as §1, §2

[5] = system: Pseudomonas aeruginosa (P. aeruginosa) strain PAO1-LAC ATCC 47085; assay: Bacterial growth inhibition test / MIC calculation; assay type: cell-based; conditions: MHB, 37° C., growth curves, linear regression, mean ± s.d.
From the text: as §1, §2

[6] = system: methicillin-resistant Staphylococcus aureus (MRSA) ATCC 43300; assay: Bacterial growth inhibition test / MIC calculation; assay type: cell-based; conditions: MHB, 37° C., growth curves, linear regression, mean ± s.d.
From the text: as §1, §2

[7] = system: methicillin-sensitive Staphylococcus aureus (S. aureus) ATCC 29213; assay: Bacterial growth inhibition test / MIC calculation; assay type: cell-based; conditions: MHB, 37° C., growth curves, linear regression, mean ± s.d.
From the text: as §1, §2

[8] = system: multidrug-resistant K. pneumoniae (MDR); assay: Bacterial growth inhibition test / MIC calculation; assay type: cell-based, Klebsiella pneumoniae; conditions: MHB, 37° C., growth curves, linear regression, mean ± s.d.
From the text: as §1, with “50 μL of suspensions with the desired concentrations of Se NPs, Se NP-ε-PL or pure ε-PL in PBS solution was added to each well of 96-well microplates, then 50 μL MHB with 2.5×10^6 bacteria/mL were added into each well.” left out
as §2, with “Concentration-inhibition curves were plotted with the percentages of absorbance, and linear regression analysis was adopted to determine the MIC at which Z becomes zero.” left out

[9] = system: human dermal fibroblast cells (HDF); assay: Lactate Dehydrogenase (LDH) release assay; assay type: cell-based; conditions: concentration of up to 50 μg/mL, 6 h
Experimental: LDH is released from cells into the medium when cell lysis occurs. The amount of LDH released to the medium was measured using the Cyto Tox 96® nonradioactive assay (Promega, Madison, Wis., USA) following the manufacturer's instructions. The HDF cells were cultured in a 96-well microplate for 24 h, before the old medium was replaced with DMEM with including either Se NPs, Se NP-ε-PL or pure ε-PL. Pure DMEM was used as negative control. The microplate was put back into the incubator for 6 h. For the maximum LDH release control, HDF cells were lysed using 1× lysis solution for 45 minutes before adding Cyto Tox 96 reagent. Cyto Tox 96 reagent was then added to the wells and the microplate was incubated for a further 30 minutes. The reaction was then stopped by adding stop solution. A microplate reader (M200 PRO, Tecan) was utilized to test absorbance at 490 nm. The cytotoxicity (Y) was calculated using the following formula: […]
OD3 represents the mean absorbance of experimental groups, and OD4 represents the mean absorbance of the maximum LDH release control group. All absorbance values are after subtraction of the culture medium background values.

[10] = system: methicillin-sensitive S. aureus (MSSA) ATCC 29213; assay: ROS production test (CellROX Orange, flow cytometry); assay type: cell-based, Staphylococcus aureus; conditions: 6.25 or 12.5 μg/ml
Experimental: (§3) The bacterial strains methicillin-sensitive S. aureus (MSSA) ATCC 29213, E. faecalis ATCC 29212, E. coli ATCC 25922 were cultured in MHB at 37° C. 50 μL of different concentration of Se NPs, Se NP-ε-PL or pure ε-PL in PBS solution was added into each well of a 96-well microplate. 50 μL MHB with 2.5×10^6 cells/mL bacteria was then added into each well. After 90 min incubation at 37° C., CellROX® Orange Reagent was added into each well at a final concentration of 750 nM. The cells were incubated for a further 1 h. The fluorescence from the CellROX Orange Reagent was measured on FL-3 (red fluorescence channel) using the Cell Lab Quanta SC MPL flow cytometer (Beckman Coulter). Two independent experiments were done for this test, and two technical replicates were adopted for each independent experiment.

E. faecalis ATCC 29212 = assay: as above; assay type: cell-based, Enterococcus faecalis; conditions: 6.25 or 12.5 μg/ml
Experimental: as §3

[11] = system: methicillin-sensitive S. aureus (MSSA) ATCC 29213; assay: Membrane potential change test (BacLight, DiOC2(3)); assay type: cell-based, Staphylococcus aureus; conditions: 6.25 or 12.5 μg/ml
Experimental: (§4) Membrane potential change was measured using a BacLight Bacterial Membrane Potential Kit (Invitrogen). The bacterial strain methicillin-sensitive S. aureus (MSSA) ATCC 29213, E. faecalis ATCC 29212, E. coli ATCC 25922 were cultured in MHB at 37° C. 50 μL of different concentrations of Se NPs, Se NP-ε-PL or pure ε-PL in PBS solution was added into each well of 96-well microplates. 50 μL MHB with 2.5×10^6 cells/mL bacteria was then added into each well. 50 μL MHB with 2.5×10^6 cells/mL bacteria was added to 50 μL PBS to act as untreated control. Carbonyl cyanide 3-chlorophenylhydrazone (CCCP) was added to untreated control at a final concentration of 5 μM to act as fully depolarized control. 3,3′-Diethyloxacarbocyanine Iodide (DiOC2(3)) was added to all wells at a final concentration of […]. […] The untreated (polarized) and CCCP-treated (fully depolarized) controls were used to determine the percentage of depolarized cells. Two independent experiments were done for this test, and two technical replicates were adopted for each independent experiment.

E. coli ATCC 25922 = assay: as above; assay type: cell-based, Escherichia coli; conditions: 6.25 or 12.5 μg/ml (CCCP 5 μM)
Experimental: as §4

mice = conditions: dosage of 5 g/kg; cited from earlier work

Substance: ε-poly-L-lysine [ε-PL]
- MIC [1]: 21.6 ± 7.0 mg/L
- MIC [2]: 27.1 ± 2.2 mg/L
- MIC [3]: 13.2 ± 0.5 mg/L
- MIC [4]: 12.0 ± 0.6 mg/L
- MIC [5]: 9.5 ± 3.6 mg/L
- MIC [6]: 11.6 ± 2.0 mg/L
- MIC [7]: 7.5 ± 1.0 mg/L
- MIC [8]: 26.5 ± 0.5 mg/L
- LDH released from HDF cells compared with untreated control [9]: no significant difference to the untreated control
- ROS production (high ROS production cells) [10]: slight promotion of ROS production
- ROS production (high ROS production cells) (E. faecalis ATCC 29212): almost no promoting effects on ROS production
- depolarisation of cell membrane [11]: depolarized cell membranes
- depolarisation of cell membrane (E. coli ATCC 25922): depolarized cell membranes
- mortality, acute oral toxicity (mice): no mortality

From patent US20220339187A1, “ANTIMICROBIAL PEPTIDE-SELENIUM NANOPARTICLES” (The University of Melbourne, priority 2019, published 2022)
